Test results from patent US20200055839A1 (priority 2017, published 2020).

System: NL-RLuc virus
Test: Inhibition of HIV replication (NL-RLuc virus, luciferase readout in MT-2 cells)
Type: cell-based
Conditions: Human immunodeficiency virus 1, MT2, 120 h, MT-2 cells infected with NL-RLuc virus, 5 days of incubation, 10% FBS, at least 2 experiments
Procedure, shortened: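 MT-2 cells infected with NL4-3-derived virus carrying Renilla luciferase in place of part of nef, grown 5 days with serial compound dilutions in RPMI 1640/10% FBS. Virus growth read as luciferase expression. EC50 from median effect equation, at least 2 experiments.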

Question: For `COc1ccc(CCOc2ccc(-c3cnc(C)c([C@H](OC(C)(C)C)C(=O)O)c3N3CCC(C)(C)CC3)nc2)cc1F` [Example 330, (2S)-2-(tert-butoxy)-2-[4′-(4,4-dimethylpiperidin-1-yl)-5-[2-(3-fluoro-4-methoxyphenyl)ethoxy]-6′-methyl-[2,3′-bipyridine]-5′-yl]acetic acid], which EC50 is on record?
Answer: 0.4 nM

Question: For `Cc1ncc(-c2cc(C(F)(F)F)c(OCCc3ccc(F)cc3)cn2)c(N2CCC(C)(C)CC2)c1[C@H](OC(C)(C)C)C(=O)O` [Example 244, (S)-2-(tert-Butoxy)-2-(4′-(4,4-dimethylpiperidin-1-yl)-5-(4-fluorophenethoxy)-6′-methyl-4-(trifluoromethyl)-[2, 3′-bipyridin]-5′-yl)acetic acid], which EC50 is on record?
Answer: 3 nM

Question: With `COc1cc(F)c(F)c(-c2cnc(C)c([C@H](OC(C)(C)C)C(=O)O)c2N2CCC(C)(C)CC2)c1` [Example 157, (2S)-2-(tert-Butoxy)-2-[5-(2,3-difluoro-5-methoxyphenyl)-4-(4,4-dimethylpiperidin-1-yl)-2-methylpyridin-3-yl]acetic acid] as the compound, how does the EC50 read?
Answer: 22 nM

Question: How did the EC50 turn out when `CCCCNc1ccc(-c2cnc(C)c([C@H](OC(C)(C)C)C(=O)O)c2N2CCC(C)(C)CC2)nc1` [Example 441, (S)-2-(tert-Butoxy)-2-(5-(butylamino)-4′-(4,4-dimethylpiperidin-1-yl)-6′-methyl-[2, 3′-bipyridin]-5′-yl)acetic acid] was run?
Answer: 7 nM

Question: `Cc1nc(-n2nc3c(c2N)CCC3)c(-c2ccc(OCCc3ccc(F)cc3)cc2)c(N2CCC(C)(C)CC2)c1[C@H](OC(C)(C)C)C(=O)O` [Example 76, (S)-2-(6-(3-Amino-5,6-dihydrocyclopenta[c]pyrazol-2(4H)-yl)-4-(4,4-dimethylpiperidin-1-yl)-5-(4-(4-fluorophenethoxy)phenyl)-2-methylpyridin-3-yl)-2-(tert-butoxy)acetic acid] was tested. Which EC50 did it give?
Answer: 4 nM

Question: How did the EC50 turn out when `Cc1nc(OCCc2cccc(F)c2)ccc1-c1cnc(C)c([C@H](OC(C)(C)C)C(=O)O)c1N1CCC(C)(C)CC1` [Example 261, (S)-2-(tert-Butoxy)-2-(4-(4,4-dimethylpiperidin-1-yl)-6′-(3-fluorophenethoxy)-2′,6-dimethyl-[3, 3′-bipyridin]-5-yl)acetic acid] was run?
Answer: 28 nM

Question: How did the EC50 turn out when `Cc1cc(C)n(-c2nc(C)c([C@H](OC(C)(C)C)C(=O)O)c(N3CCC(C)(C)CC3)c2-c2ccc(OCCc3ccc(F)cc3)cc2)n1` [Example 59, (S)-2-(tert-Butoxy)-2-(6-(3,5-dimethyl-1H-pyrazol-1-yl)-4-(4,4-dimethylpiperidin-1-yl)-5-(4-(4-fluorophenethoxy)phenyl)-2-methylpyridin-3-yl)acetic acid] was run?
Answer: 3 nM

Question: Which EC50 does the source give for `Cc1ncc(-c2ccc(OCC(C)C)cn2)c(N2CCC(C)(C)CC2)c1[C@H](OC(C)(C)C)C(=O)O` [Example 312, (2S)-2-(tert-butoxy)-2-[4′-(4,4-dimethylpiperidin-1-yl)-6′-methyl-5-(2-methylpropoxy)-[2,3′-bipyridine]-5′-yl]acetic acid] here?
Answer: 1 nM

Question: With `CCCCOc1ncc(-c2cnc(C)c([C@H](OC(C)(C)C)C(=O)O)c2N2CCC(C)(C)CC2)cc1F` [Example 377, (2S)-2-(tert-butoxy)-2-[6′-butoxy-4-(4,4-dimethylpiperidin-1-yl)-5′-fluoro-6-methyl-[3,3′-bipyridine]-5-yl]acetic acid] as the compound, how does the EC50 read?
Answer: 4 nM

Question: How did the EC50 turn out when `Cc1ncc(-c2ccc(OCCc3cccc(F)c3F)cn2)c(N2CCC(C)(C)CC2)c1[C@H](OC(C)(C)C)C(=O)O` [Example 329, (2S)-2-(tert-butoxy)-2-{5-[2-(2,3-difluorophenyl)ethoxy]-4′-(4,4-dimethylpiperidin-1-yl)-6′-methyl-[2,3′-bipyridine]-5′-yl}acetic acid] was run?
Answer: 0.5 nM

Question: How did the EC50 turn out when `Cc1nc(C(=O)NS(=O)(=O)C2CC2)c(-c2ccc(OCCc3ccc(F)cc3)cc2)c(N2CCC(C)(C)CC2)c1[C@H](OC(C)(C)C)C(=O)O` [Example 9, (S)-2-(tert-Butoxy)-2-(6-((cyclopropylsulfonyl)carbamoyl)-4-(4,4-dimethylpiperidin-1-yl)-5-(4-(4-fluorophenethoxy)phenyl)-2-methylpyridin-3-yl)acetic acid] was run?
Answer: 380 nM

Question: With `Cc1nc(CN2CCC3(CCC3)CC2)c(-c2ccc(F)c(F)c2)c(N2CCC(C)(C)CC2)c1[C@H](OC(C)(C)C)C(=O)O` [Example 195, (2S)-2-[6-({7-Azaspiro[3.5]nonan-7-yl}methyl)-5-(3,4-difluorophenyl)-4-(4,4-dimethylpiperidin-1-yl)-2-methylpyridin-3-yl]-2-(tert-butoxy)acetic acid] as the compound, how does the EC50 read?
Answer: 1 nM

Question: For `CC1(C)CCN(c2c(-c3ccc(OCCc4ccc(F)cc4)cc3)cnc(CO)c2[C@H](OC(C)(C)C)C(=O)O)CC1` [Example 8, (S)-2-(tert-Butoxy)-2-(4-(4,4-dimethylpiperidin-1-yl)-5-(4-(4-fluorophenethoxy)phenyl)-2-(hydroxymethyl)pyridin-3-yl)acetic acid], which EC50 is on record?
Answer: 3 nM

Question: How did the EC50 turn out when `Cc1nc(C(C)O)c(-c2ccc(OCCc3ccc(F)cc3)c(F)c2)c(N2CCC(C)(C)CC2)c1[C@H](OC(C)(C)C)C(=O)O` (single isomer, unassigned) [Example 236] was run?
Answer: 2 nM

Question: With `Cc1nc(Nc2ncccc2F)c(-c2ccc(OCCc3ccc(F)cc3)cc2)c(N2CCC(C)(C)CC2)c1[C@H](OC(C)(C)C)C(=O)O` [Example 82, (S)-2-(tert-Butoxy)-2-(4-(4,4-dimethylpiperidin-1-yl)-5-(4-(4-fluorophenethoxy)phenyl)-6-((3-fluoropyridin-2-yl)amino)-2-methylpyridin-3-yl)acetic acid] as the compound, how does the EC50 read?
Answer: 2 nM

Question: How did the EC50 turn out when `Cc1ncc(-c2cnc(OCCc3ccccc3F)c(Cl)c2)c(N2CCC(C)(C)CC2)c1[C@H](OC(C)(C)C)C(=O)O` [Example 252, (S)-2-(tert-Butoxy)-2-(5′-chloro-4-(4,4-dimethylpiperidin-1-yl)-6′-(2-fluorophenethoxy)-6-methyl-[3, 3′-bipyridin]-5-yl)acetic acid] was run?
Answer: 1 nM

Question: With `CC1(C)CCN(c2c(-c3ccc(OCCc4ccc(F)cc4)cn3)cnc(Cl)c2[C@H](OC(C)(C)C)C(=O)O)CC1` [Example 225, (2S)-2-(tert-Butoxy)-2-[6′-chloro-4′-(4,4-dimethylpiperidin-1-yl)-5-[2-(4-fluorophenyl)ethoxy]-[2, 3′-bipyridine]-5′-yl]acetic acid] as the compound, how does the EC50 read?
Answer: 1 nM

Question: `Cc1nc(OCC(C)C)ccc1-c1cnc(C)c([C@H](OC(C)(C)C)C(=O)O)c1N1CCC(C)(C)CC1` [Example 418, (S)-2-(tert-Butoxy)-2-(4-(4,4-dimethylpiperidin-1-yl)-6′-isobutoxy-2′,6-dimethyl-[3, 3′-bipyridin]-5-yl)acetic acid] was tested. Which EC50 did it give?
Answer: 107 nM

Question: With `Cc1nc(Nc2cccc(F)n2)c(-c2ccc(OCCc3ccc(F)cc3)cc2)c(N2CCC(C)(C)CC2)c1[C@H](OC(C)(C)C)C(=O)O` [Example 89, (S)-2-(tert-Butoxy)-2-(4-(4,4-dimethylpiperidin-1-yl)-5-(4-(4-fluorophenethoxy)phenyl)-6-((6-fluoropyridin-2-yl)amino)-2-methylpyridin-3-yl)acetic acid] as the compound, how does the EC50 read?
Answer: 13 nM

Question: How did the EC50 turn out when `Cc1nc(Nc2ccncn2)c(-c2ccc(OCCc3ccc(F)cc3)cc2)c(N2CCC(C)(C)CC2)c1[C@H](OC(C)(C)C)C(=O)O` [Example 88, (S)-2-(tert-Butoxy)-2-(4-(4,4-dimethylpiperidin-1-yl)-5-(4-(4-fluorophenethoxy)phenyl)-2-methyl-6-(pyrimidin-4-ylamino)pyridin-3-yl)acetic acid] was run?
Answer: 0.5 nM

Question: For `Cc1cccc(Nc2nc(C)c([C@H](OC(C)(C)C)C(=O)O)c(N3CCC(C)(C)CC3)c2-c2ccc(OCCc3ccc(F)cc3)cc2)n1` [Example 80, (S)-2-(tert-Butoxy)-2-(4-(4,4-dimethylpiperidin-1-yl)-5-(4-(4-fluorophenethoxy)phenyl)-2-methyl-6-((6-methylpyridin-2-yl)amino)pyridin-3-yl)acetic acid], which EC50 is on record?
Answer: 2 nM

Question: How did the EC50 turn out when `Cc1nc(Nc2ccccn2)c(-c2ccc(OCCc3ccc(F)cc3)cc2)c(N2CCC(C)(C)CC2)c1[C@H](OC(C)(C)C)C(=O)O` [Example 63, (S)-2-(tert-Butoxy)-2-(4-(4,4-dimethylpiperidin-1-yl)-5-(4-(4-fluorophenethoxy)phenyl)-2-methyl-6-(pyridin-2-ylamino)pyridin-3-yl)acetic acid] was run?
Answer: 6 nM

Question: For `Cc1nc(CO)c(-c2ccc(OCCc3ccc(F)cc3)c(F)c2)c(N2CCC(C)(C)CC2)c1[C@H](OC(C)(C)C)C(=O)O` [Example 230, (S)-2-(tert-Butoxy)-2-(4-(4,4-dimethylpiperidin-1-yl)-5-(3-fluoro-4-(4-fluorophenethoxy)phenyl)-6-(hydroxymethyl)-2-methylpyridin-3-yl)acetic acid], which EC50 is on record?
Answer: 3 nM

Question: How did the EC50 turn out when `Cc1ncc(-c2cnc(OCCc3c(F)cccc3Cl)c(F)c2)c(N2CCC(C)(C)CC2)c1[C@H](OC(C)(C)C)C(=O)O` [Example 239, (S)-2-(tert-Butoxy)-2-(6′-(2-chloro-6-fluorophenethoxy)-4-(4,4-dimethylpiperidin-1-yl)-5′-fluoro-6-methyl-[3, 3′-bipyridin]-5-yl)acetic acid] was run?
Answer: 3 nM

Question: How did the EC50 turn out when `Cc1ncc(-c2ccc(O[C@H](C)C(C)C)cn2)c(N2CCC(C)(C)CC2)c1[C@H](OC(C)(C)C)C(=O)O` [Example 319, (2S)-2-(tert-butoxy)-2-[4′-(4,4-dimethylpiperidin-1-yl)-6′-methyl-5-{[(2R)-3-methylbutan-2-yl]oxy}-[2,3′-bipyridine]-5′-yl]acetic acid] was run?
Answer: 7 nM

Question: Which EC50 does the source give for `COc1ccc(CCOc2ccc(-c3cnc(C)c([C@H](OC(C)(C)C)C(=O)O)c3N3CCC(C)(C)CC3)nc2)c(C)c1` [Example 292, (2S)-2-(tert-butoxy)-2-[4′-(4,4-dimethylpiperidin-1-yl)-5-[2-(4-methoxy-2-methylphenyl)ethoxy]-6′-methyl-[2,3′-bipyridine]-5′-yl]acetic acid] here?
Answer: 2 nM

Same assay, conditions: MT-2 cells infected with NL-RLuc virus, 5 days of incubation, 10% FBS, at least 2 experiments

Question: `Cc1nc(Nc2ncccn2)c(-c2ccc(OCCc3ccc(F)cc3)c(F)c2)c(N2CCC(C)(C)CC2)c1[C@H](OC(C)(C)C)C(=O)O` [Example 69, (S)-2-(tert-Butoxy)-2-(4-(4,4-dimethylpiperidin-1-yl)-5-(3-fluoro-4-(4-fluorophenethoxy)phenyl)-2-methyl-6-(pyrimidin-2-ylamino)pyridin-3-yl)acetic acid] was tested. Which EC50 did it give?
Answer: 3 nM
